Measurements reported in patent US4118585A, “Anionic benzene tetrakis carbonylimino isophthalic acid salts” (priority 1977, dated 1978).

What was measured:
[1] = tested on: activated human C1; test: Test, Code 026 (C1 inhibitor); format: biochemical; conditions: serial two-fold dilution assay; higher well number indicates higher activity
Text: (§1) An active inhibitor protects C2 from C1 and C4; (ii) Test, Code 035 (C3-C9 inhibitor) -- This test determines the ability of the late components of human complement (C3-C9) to lyse EAC 142 in the presence of appropriate dilutions of the test compound. An active inhibitor protects EAC 142 from lysis by human C3-C9; (iii) Test, Code 036 (C-Shunt inhibitor) -- In this test human erythrocytes rendered fragile are lysed in autologous serum via the shunt pathway activated by cobra venom factor in the presence of appropriate dilutions of the test compound. Inhibition of the shunt pathway results in failure of lysis; (iv) Forssman Vasculitis Test -- Here, the well known complement dependent lesion, Forssman vasculitis, is produced in guinea pigs by intradermal injection of rabbit anti-Forssman antiserum. […]

[2] = tested on: late components of human complement (C3-C9); test: Test, Code 035 (C3-C9 inhibitor); format: biochemical; parameters: key: N=Negative; conditions: serial two-fold dilution assay; lysis of EAC 142 by human C3-C9
Text: as §1

[3] = tested on: shunt pathway activated by cobra venom factor; test: Test, Code 036 (C-Shunt inhibitor); format: cell-based; conditions: serial two-fold dilution assay; fragile human erythrocytes in autologous serum
Text: as §1

In the case of `O=C([O-])c1cc(NC(=O)c2cc(C(=O)Nc3cc(C(=O)[O-])cc(C(=O)[O-])c3)c(C(=O)Nc3cc(C(=O)[O-])cc(C(=O)[O-])c3)cc2C(=O)Nc2cc(C(=O)[O-])cc(C(=O)[O-])c2)cc(C(=O)[O-])c1.[Na+].[Na+].[Na+].[Na+].[Na+].[Na+].[Na+].[Na+]` [5,5',5",5'"-[1,2,4,5-Benzenetetrayltetrakis(carbonylimino)]-tetraisophthalic acid octasodium salt], the “Cl 026 Wells” value [1] is reported as “+7 Wells”, the “C-Late 035 Wells” value [2] is reported as “N” and the “Shunt Inhibition 036 Wells” value [3] is reported as “+3 Wells”.
